Tests used:
Test in all cases: relative viability (nuclei count vs DMSO), 5 days (fraction); higher = more cells survive
[1] = compound: C=CC(=O)N1CCC[C@@H](n2nc(-c3ccc(Oc4ccccc4)cc3)c3c(N)ncnc32)C1 [Ibrutinib]
Method in brief: (§1)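 Viability here means nuclei in treated wells divided by nuclei in vehicle wells, reported as the median across plates. Only plates with control CV below 25% and at least one doubling passed. Lung cancer cell lines in 1536-well plates were exposed to five √10-spaced library-drug doses for 5 days and counted from 4× Hoechst images in MetaXpress.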

[2] = compound: C=CC(=O)Nc1cc(-n2c(=O)ccc3cnc4ccc(-c5ccc(NS(C)(=O)=O)cc5)cc4c32)ccc1C [BMX-IN-1]
Method in brief: as §1

[3] = compound: C=CCc1cccc(/C=N/NC(=O)CN2CCN(Cc3ccccc3)CC2)c1O [PAC-1]
Method in brief: as §1

[4] = compound: C=CCc1cccc(/C=N/NC(=O)CN2CCN(Cc3ccccc3)CC2)c1O [PAC-1] + COc1cc2c(Oc3ccc(NC(=O)C4(C(=O)Nc5ccc(F)cc5)CC4)cc3F)ccnc2cc1OCCCN1CCOCC1 [Foretinib] (partner 0.25 µM)
Method in brief: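 Lung cancer cell lines in 1536-well plates got either a single drug or a fixed anchor-drug dose together with five library-drug doses (not always all listed) in √10 steps, by pin tool, on the day after seeding. Nuclei were counted after 5 days, and relative viability is the treated-to-vehicle ratio of nuclei counts. Values are medians of duplicate plates.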

Cell Line | relative viability ([1]; 0.01581 µM) | relative viability ([1]; 0.05 µM) | relative viability ([1]; 0.1581 µM) | relative viability ([1]; 0.5 µM) | relative viability ([2]; 0.02 µM) | relative viability ([2]; 0.2 µM) | relative viability ([2]; 0.6325 µM) | relative viability ([2]; 2 µM) | relative viability ([3]; 0.02 µM) | relative viability ([3]; 0.06325 µM) | relative viability ([3]; 0.2 µM) | relative viability ([3]; 2 µM) | relative viability ([4]; first compound 0.02 µM) | relative viability ([4]; first compound 0.06325 µM) | relative viability ([4]; first compound 0.2 µM) | relative viability ([4]; first compound 2 µM) | relative viability ([1]; 0.005 µM)
NCI-H1355 | 0.975 | 1.02 | 0.826 | 0.843 | 1.03 | 1.06 | 1.11 | 1.12 | 0.983 | 1.02 | 0.968 | 1.06 | 0.921 | 0.983 | 0.936 | 1.04 | –
NCI-H1395 | 1.04 | 0.855 | 0.713 | 0.957 | 1.01 | 0.951 | 0.97 | 0.892 | 1.02 | 0.928 | 0.872 | 0.911 | 0.937 | 1.02 | 0.875 | 0.873 | 0.763
NCI-H1437 | 0.975 | 0.981 | 0.974 | 1.02 | 1.11 | 0.984 | 1.03 | 1.03 | 0.988 | 1.01 | 0.96 | 0.814 | 1.19 | 1.23 | 1.3 | 1.1 | 0.957
NCI-H1563 | 0.893 | 1 | 0.977 | 0.861 | 0.955 | 0.943 | 1.04 | 0.964 | 0.953 | 1.03 | 1.04 | 0.94 | 0.928 | 1 | 0.976 | 0.935 | 0.922
NCI-H1623 | 0.842 | 0.672 | 0.858 | 0.299 | 0.995 | 1.01 | 0.988 | 0.882 | 0.966 | 0.891 | 0.95 | 0.926 | 0.86 | 0.851 | 0.961 | 0.868 | 0.894
NCI-H1650 | 0.841 | 0.76 | 0.79 | 0.706 | 1 | 0.896 | 1.01 | 0.772 | 0.916 | 0.916 | 0.856 | 0.81 | 0.892 | 1.31 | 1.22 | 0.732 | 0.793
NCI-H1651 | 0.93 | 0.913 | 0.923 | 1.03 | 1.11 | 1.08 | 1.07 | 0.991 | 0.978 | 0.967 | 0.943 | 0.983 | 0.796 | 0.72 | 0.735 | 0.917 | 0.931
NCI-H1666 | 0.984 | 0.851 | 0.965 | 0.867 | 1.05 | 1.06 | 1.11 | 1.1 | 1.01 | 1.01 | 1 | 1.04 | 0.975 | 0.979 | 0.995 | 0.95 | 1.03
NCI-H1703 | 0.864 | 0.916 | 0.879 | 0.769 | 1.1 | 0.914 | 0.862 | 0.805 | 0.993 | 0.903 | 0.955 | 0.962 | 0.359 | 0.434 | 0.337 | 0.309 | –
NCI-H1734 | 0.922 | 0.952 | 1.03 | 0.999 | 1.06 | 1.06 | 1.11 | 1.02 | 0.936 | 1.01 | 0.942 | 1.02 | 0.759 | 0.779 | 0.762 | 0.759 | 0.849

Reference: the supplement of paper PMC10307832
